Results published in paper PMC5949348, “The Metabolism of Separase Inhibitor Sepin-1 in Human, Mouse, and Rat Liver Microsomes” (Frontiers in Pharmacology, 2018).

Tests used:
[1] = system: T1, CYP2A6; assay: Sepin-1 metabolism by recombinant CYP2A6; format: in vitro ADME, human; settings: 30 μM sepin-1, 2 pmol cDNA-expressed enzyme, NADPH 1.0 mM, 30 min; unit not given, highest enzyme per metabolite = 100.0
T1 construct: purchased XenoTech
Procedure: (§1) Incubations were conducted in 1× phosphate-buffered saline (1× PBS, pH 7.4), containing 30 μM sepin-1, 1.0 mg HLM, MLM, RLM, or 2 pmol of each cDNA-expressed P450 enzyme (control, CYP1A2, 2A6, 2B6, 2C8, 2C9, 2C19, 2D6, 2E1, and CYP3A4) in a final volume of 190 μl. After 5 min of pre-incubation at 37°C, the reaction was initiated by adding 10 μl of 20 mM NADPH (final concentration 1.0 mM) and continued for 30 min, with shaking at 37°C. Incubations lacking NADPH served as controls. Reactions were terminated with 200 μl of ice-cold methanol, followed by vortexing for 30 s and centrifuging at 15,000 × g for 15 min. Each supernatant was transferred to an auto sampler vial, and 5.0 μl was injected on to UHPLC coupled with a QTOFMS system for metabolite analysis. Incubations were conducted in quadruplicate for HLM, in triplicate for MLM and RLM, and in duplicate for cDNA-expressed P450 enzymes.
(§2) The separation of sepin-1 and its metabolites was achieved using a 1260 Infinity Binary LC System (Agilent Technologies, Santa Clara, CA, United States) equipped with 100 mm × 2.1 mm (Agilent XDB C18) column. The column temperature was maintained at 40°C. The flow rate was 0.3 ml/min, with a gradient ranging from 2% to 98% aqueous acetonitrile containing 0.1% formic acid in a 15-min run. QTOFMS was operated in a positive mode with electrospray ionization. […]

[2] = molecular target: T2, CYP2C9 (Homo sapiens, UniProt P11712); assay: Sepin-1 metabolism by recombinant CYP2C9; format: in vitro ADME; settings: 30 μM sepin-1, 2 pmol cDNA-expressed enzyme, NADPH 1.0 mM, 30 min; unit not given, highest enzyme per metabolite = 100.0
T2 construct: purchased XenoTech
T2 sequence (P11712 whole entry): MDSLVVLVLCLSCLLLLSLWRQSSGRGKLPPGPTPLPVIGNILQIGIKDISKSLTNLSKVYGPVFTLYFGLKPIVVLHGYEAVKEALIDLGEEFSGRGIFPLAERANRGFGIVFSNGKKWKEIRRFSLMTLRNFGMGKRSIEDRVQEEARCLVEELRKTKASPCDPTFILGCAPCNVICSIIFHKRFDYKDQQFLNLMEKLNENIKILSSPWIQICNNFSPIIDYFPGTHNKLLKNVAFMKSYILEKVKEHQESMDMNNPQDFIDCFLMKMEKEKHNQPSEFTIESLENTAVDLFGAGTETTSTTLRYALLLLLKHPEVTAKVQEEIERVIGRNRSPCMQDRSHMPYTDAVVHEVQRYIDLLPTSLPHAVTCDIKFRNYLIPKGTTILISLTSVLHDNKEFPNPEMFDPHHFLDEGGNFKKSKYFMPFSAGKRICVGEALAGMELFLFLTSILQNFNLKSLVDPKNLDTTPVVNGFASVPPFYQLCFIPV
Procedure: as §1, §2

[3] = system: T3, CYP2E1; assay: Sepin-1 metabolism by recombinant CYP2E1; format: in vitro ADME, human; settings: 30 μM sepin-1, 2 pmol cDNA-expressed enzyme, NADPH 1.0 mM, 30 min; unit not given, highest enzyme per metabolite = 100.0
T3 construct: purchased XenoTech
Procedure: as §1, §2

[4] = Metabolism of sepin-1 in HLM, MLM and RLM (metabolite profiling, UHPLC-QTOFMS); format: in vitro ADME, human, mouse, rat; settings: 30 min; for Source (liver microsomes in which the metabolite was found): 30 μM sepin-1, 1.0 mg microsomes, NADPH 1.0 mM, 37°C; for Relative abundance of metabolite across HLM, MLM and RLM (in words): 30 μM sepin-1, NADPH 1.0 mM
Procedure: as §1
(§3) The separation of sepin-1 and its metabolites was achieved using a 1260 Infinity Binary LC System (Agilent Technologies, Santa Clara, CA, United States) equipped with 100 mm × 2.1 mm (Agilent XDB C18) column. The column temperature was maintained at 40°C. The flow rate was 0.3 ml/min, with a gradient ranging from 2% to 98% aqueous acetonitrile containing 0.1% formic acid in a 15-min run. QTOFMS was operated in a positive mode with electrospray ionization. Ultra-high pure nitrogen was applied as the drying gas (12 l/min) and the collision gas. The drying gas temperature was set at 325°C, and the nebulizer pressure was kept at 35 psi. The capillary voltages were set at 3.5 kV. During MS, real-time mass correction and accurate mass were achieved by continuously measuring standard reference ions at m/z 121.0508 and 922.0098 in the positive mode. The MS/MS of sepin-1 metabolites was performed in a targeted mode with a default isolation width of m/z 4 and collision energy ramp ranging from 10 to 45 V.
Mass chromatograms and mass spectra were acquired by MassHunter Workstation Data Acquisition Software (Agilent, Santa Clara, CA, United States) in centroid and profile formats from m/z 100 to 1000. The acquisition rate was set as 1.5 spectra per second. Centroid and integrated mass chromatographic data were processed by Mass Profinder and Mass Profiler Professional Software (Agilent, Santa Clara, CA, United States) to generate a multivariate data matrix. The corresponding data matrices were then exported into SIMCA13 (Umetrics, Kinnelon, NJ, United States) for multivariate data analysis. OPLS-DA was conducted on Pareto-scaled data. For the QQQMS data, QQQ Quantitative Analysis Software (Agilent, Santa Clara, CA, United States) was used for metabolite analysis. […] Statistical differences between two groups were determined by Student’s t-test.

[5] = molecular target: T4, CYP1A2 (Homo sapiens, UniProt P05177); assay: Sepin-1 metabolism by recombinant CYP1A2; format: in vitro ADME; settings: 30 μM sepin-1, 2 pmol cDNA-expressed enzyme, NADPH 1.0 mM, 30 min; unit not given, highest enzyme per metabolite = 100.0
T4 construct: purchased XenoTech
T4 sequence (P05177 1-516): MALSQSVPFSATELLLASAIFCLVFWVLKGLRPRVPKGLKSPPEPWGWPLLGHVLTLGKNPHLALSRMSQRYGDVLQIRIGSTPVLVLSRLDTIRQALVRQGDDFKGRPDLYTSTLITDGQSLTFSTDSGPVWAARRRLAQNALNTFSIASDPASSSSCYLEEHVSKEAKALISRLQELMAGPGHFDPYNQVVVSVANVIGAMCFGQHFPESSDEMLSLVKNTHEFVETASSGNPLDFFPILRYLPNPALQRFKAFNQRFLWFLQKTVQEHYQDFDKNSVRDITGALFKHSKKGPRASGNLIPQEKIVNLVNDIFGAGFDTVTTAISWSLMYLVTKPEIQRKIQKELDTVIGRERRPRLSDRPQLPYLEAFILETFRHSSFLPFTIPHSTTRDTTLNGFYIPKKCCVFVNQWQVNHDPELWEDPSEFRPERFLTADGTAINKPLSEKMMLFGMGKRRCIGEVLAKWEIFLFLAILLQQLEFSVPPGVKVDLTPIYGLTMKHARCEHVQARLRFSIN
Procedure: as §1, §2

[6] = molecular target: T5, CYP2D6 (Homo sapiens, UniProt P10635); assay: Sepin-1 metabolism by recombinant CYP2D6; format: in vitro ADME; settings: 30 μM sepin-1, 2 pmol cDNA-expressed enzyme, NADPH 1.0 mM, 30 min; unit not given, highest enzyme per metabolite = 100.0
T5 construct: purchased XenoTech
T5 sequence (P10635 whole entry): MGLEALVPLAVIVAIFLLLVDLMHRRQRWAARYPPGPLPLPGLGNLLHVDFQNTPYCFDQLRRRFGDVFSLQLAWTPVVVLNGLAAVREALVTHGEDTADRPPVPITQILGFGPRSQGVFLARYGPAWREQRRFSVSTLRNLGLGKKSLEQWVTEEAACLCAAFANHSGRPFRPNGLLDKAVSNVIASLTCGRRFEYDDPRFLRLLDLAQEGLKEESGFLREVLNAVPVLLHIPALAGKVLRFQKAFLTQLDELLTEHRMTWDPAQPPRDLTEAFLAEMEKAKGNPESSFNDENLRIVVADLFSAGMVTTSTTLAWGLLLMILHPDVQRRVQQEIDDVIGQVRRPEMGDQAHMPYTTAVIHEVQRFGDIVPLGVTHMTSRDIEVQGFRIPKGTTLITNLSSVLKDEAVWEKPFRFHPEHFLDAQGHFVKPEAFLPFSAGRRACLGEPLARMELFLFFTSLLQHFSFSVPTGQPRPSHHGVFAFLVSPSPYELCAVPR
Procedure: as §1, §2

[7] = molecular target: T6, CYP2C19 (Homo sapiens, UniProt P33261); assay: Sepin-1 metabolism by recombinant CYP2C19; format: in vitro ADME; settings: 30 μM sepin-1, 2 pmol cDNA-expressed enzyme, NADPH 1.0 mM, 30 min; unit not given, highest enzyme per metabolite = 100.0
T6 construct: purchased XenoTech
T6 sequence (P33261 whole entry): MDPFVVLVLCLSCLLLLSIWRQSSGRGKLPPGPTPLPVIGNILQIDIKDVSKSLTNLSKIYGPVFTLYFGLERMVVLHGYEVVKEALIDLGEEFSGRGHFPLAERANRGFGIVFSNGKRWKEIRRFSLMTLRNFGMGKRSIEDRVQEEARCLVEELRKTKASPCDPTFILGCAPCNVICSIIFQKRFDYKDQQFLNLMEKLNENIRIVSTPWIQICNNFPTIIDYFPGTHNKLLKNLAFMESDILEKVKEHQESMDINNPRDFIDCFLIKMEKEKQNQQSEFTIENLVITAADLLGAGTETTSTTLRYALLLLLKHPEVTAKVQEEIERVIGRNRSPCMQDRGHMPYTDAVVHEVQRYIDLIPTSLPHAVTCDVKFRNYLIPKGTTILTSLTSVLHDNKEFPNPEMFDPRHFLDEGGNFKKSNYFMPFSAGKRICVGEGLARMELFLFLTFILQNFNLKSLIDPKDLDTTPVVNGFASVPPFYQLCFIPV
Procedure: as §1, §2

[8] = molecular target: T7, CYP2B6 (Homo sapiens, UniProt P20813); assay: Sepin-1 metabolism by recombinant CYP2B6; format: in vitro ADME; settings: 30 μM sepin-1, 2 pmol cDNA-expressed enzyme, NADPH 1.0 mM, 30 min; unit not given, highest enzyme per metabolite = 100.0
T7 construct: purchased XenoTech
T7 sequence (P20813 1-491): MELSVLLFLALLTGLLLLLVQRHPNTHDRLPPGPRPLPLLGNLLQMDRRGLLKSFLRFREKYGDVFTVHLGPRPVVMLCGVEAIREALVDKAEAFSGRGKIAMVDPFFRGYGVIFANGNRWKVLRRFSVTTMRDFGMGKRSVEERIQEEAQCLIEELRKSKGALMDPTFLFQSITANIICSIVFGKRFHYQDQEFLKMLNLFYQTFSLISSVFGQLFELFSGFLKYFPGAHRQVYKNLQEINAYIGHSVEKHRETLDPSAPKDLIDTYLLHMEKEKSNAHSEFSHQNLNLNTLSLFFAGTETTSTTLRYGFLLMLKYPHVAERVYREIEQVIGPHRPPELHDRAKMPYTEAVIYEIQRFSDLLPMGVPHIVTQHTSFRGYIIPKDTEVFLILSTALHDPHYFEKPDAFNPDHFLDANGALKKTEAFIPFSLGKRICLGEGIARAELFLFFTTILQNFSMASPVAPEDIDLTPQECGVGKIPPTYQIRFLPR
Procedure: as §1, §2

[9] = Metabolism of sepin-1 in human liver microsomes; format: in vitro ADME; settings: HLM, 30 μM sepin-1, with or without NADPH 1.0 mM
Procedure: as §1
as §3, with “During MS, real-time mass correction and accurate mass were achieved by continuously measuring standard reference ions at m/z 121.0508 and 922.0098 in the positive mode. The MS/MS of sepin-1 metabolites was performed in a targeted mode with a default isolation width of m/z 4 and collision energy ramp ranging from 10 to 45 V.” left out
Mass chromatograms and mass spectra were acquired by MassHunter Workstation Data Acquisition Software (Agilent, Santa Clara, CA, United States) in centroid and profile formats from m/z 100 to 1000. […] For the QQQMS data, QQQ Quantitative Analysis Software (Agilent, Santa Clara, CA, United States) was used for metabolite analysis. […] Statistical differences between two groups were determined by Student’s t-test.

[10] = Sepin-1 metabolism with cDNA-expressed P450 control; format: in vitro ADME, human; settings: 30 μM sepin-1, control enzyme preparation, NADPH 1.0 mM, 30 min; unit not given, highest enzyme per metabolite = 100.0
Procedure: as §1, §2

[11] = molecular target: T8, CYP3A4 (Homo sapiens, UniProt P08684); assay: Sepin-1 metabolism by recombinant CYP3A4; format: in vitro ADME; settings: 30 μM sepin-1, 2 pmol cDNA-expressed enzyme, NADPH 1.0 mM, 30 min; unit not given, highest enzyme per metabolite = 100.0
T8 construct: purchased XenoTech
T8 sequence (P08684 whole entry): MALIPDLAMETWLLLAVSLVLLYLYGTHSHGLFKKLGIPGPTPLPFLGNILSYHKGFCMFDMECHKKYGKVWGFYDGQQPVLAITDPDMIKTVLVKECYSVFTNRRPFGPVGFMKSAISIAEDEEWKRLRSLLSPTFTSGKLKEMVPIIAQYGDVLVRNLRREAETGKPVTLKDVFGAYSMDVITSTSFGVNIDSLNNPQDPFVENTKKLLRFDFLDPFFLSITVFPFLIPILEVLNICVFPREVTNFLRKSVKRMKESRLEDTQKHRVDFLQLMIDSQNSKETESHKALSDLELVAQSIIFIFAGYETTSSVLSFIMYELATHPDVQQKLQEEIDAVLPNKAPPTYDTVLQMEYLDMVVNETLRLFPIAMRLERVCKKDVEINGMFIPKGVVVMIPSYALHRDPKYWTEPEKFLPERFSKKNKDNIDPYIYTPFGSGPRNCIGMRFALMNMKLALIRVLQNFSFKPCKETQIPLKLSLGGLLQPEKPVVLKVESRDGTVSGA
Procedure: as §1, §2

[12] = molecular target: T9, CYP2C8 (Homo sapiens, UniProt P10632); assay: Sepin-1 metabolism by recombinant CYP2C8; format: in vitro ADME; settings: 30 μM sepin-1, 2 pmol cDNA-expressed enzyme, NADPH 1.0 mM, 30 min; unit not given, highest enzyme per metabolite = 100.0
T9 construct: purchased XenoTech
T9 sequence (P10632 1-490): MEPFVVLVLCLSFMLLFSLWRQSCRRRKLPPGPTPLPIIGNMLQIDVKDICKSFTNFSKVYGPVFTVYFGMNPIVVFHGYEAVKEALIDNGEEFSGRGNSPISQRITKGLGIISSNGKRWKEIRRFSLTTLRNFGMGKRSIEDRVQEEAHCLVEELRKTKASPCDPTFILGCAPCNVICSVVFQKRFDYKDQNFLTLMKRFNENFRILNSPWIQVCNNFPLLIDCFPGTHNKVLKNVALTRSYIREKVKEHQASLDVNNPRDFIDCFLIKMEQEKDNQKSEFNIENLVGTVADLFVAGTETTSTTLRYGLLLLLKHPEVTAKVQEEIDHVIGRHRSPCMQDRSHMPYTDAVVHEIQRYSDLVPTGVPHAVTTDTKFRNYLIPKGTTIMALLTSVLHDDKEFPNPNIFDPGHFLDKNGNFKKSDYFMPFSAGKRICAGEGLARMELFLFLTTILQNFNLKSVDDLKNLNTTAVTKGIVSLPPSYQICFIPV
Procedure: as §1, §2

Structure (SMILES)	Formation of metabolite by CYP2A6 (Role of P450s in the metabolism of sepin-1) [1]	Formation of metabolite by CYP2C9 (Role of P450s in the metabolism of sepin-1) [2]	Formation of metabolite by CYP2E1 (Role of P450s in the metabolism of sepin-1) [3]	Source (liver microsomes in which the metabolite was found) [4]	Relative abundance of metabolite across HLM, MLM and RLM (in words) [4]	Formation of metabolite by CYP1A2 (Role of P450s in the metabolism of sepin-1) [5]	Formation of metabolite by CYP2D6 (Role of P450s in the metabolism of sepin-1) [6]	Formation of metabolite by CYP2C19 (Role of P450s in the metabolism of sepin-1) [7]	Formation of metabolite by CYP2B6 (Role of P450s in the metabolism of sepin-1) [8]	NADPH dependence of metabolite formation [9]	Formation of metabolite, Control (Role of P450s in the metabolism of sepin-1) [10]	Formation of metabolite by CYP3A4 (Role of P450s in the metabolism of sepin-1) [11]	Formation of metabolite by CYP2C8 (Role of P450s in the metabolism of sepin-1) [12]
CC1(C)Nc2ccc([N+](=O)[O-])cc2N1 [M1]	90.8	90.4	89.9	HLM, MLM, RLM	dominant metabolites in all the three species	86.3	96.9	90.8	91.9	NADPH dependent	79.5	100.0	91.3
CC1(C)[N+]([O-])=c2ccc(N)cc2=[N+]1[O-] [M2]	76.1	57.2	53.2	HLM, MLM, RLM	dominant metabolites in all the three species	50.5	100.0	67.5	85.9	NADPH dependent	41.5	95.3	63.6
